Measured values from patent publication US20230373985A1 (Origenis Gmbh, priority 2020, published 2023).

Assays:
[1] = target: T1, wt human TYK2, catalytic site (Homo sapiens, UniProt P29597); test: HTRF KinEASE assay, TYK2; type: biochemical; details: 1 μM ATP; read-out: IC50, Activity Toward TYK2
T1 construct: wt human TYK2, catalytic site; purchased SignalChem
T1 sequence (P29597 897-1176 limits assumed): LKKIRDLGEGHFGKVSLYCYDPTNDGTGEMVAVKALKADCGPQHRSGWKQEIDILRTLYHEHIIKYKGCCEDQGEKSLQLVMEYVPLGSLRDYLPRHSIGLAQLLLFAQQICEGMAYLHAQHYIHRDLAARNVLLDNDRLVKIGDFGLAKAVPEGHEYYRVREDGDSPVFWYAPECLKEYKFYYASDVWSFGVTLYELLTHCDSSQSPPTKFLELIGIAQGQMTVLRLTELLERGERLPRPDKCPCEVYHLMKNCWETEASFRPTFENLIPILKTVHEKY
Outline: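 Kinase reaction run at room temperature for at least 30 min: 2 nM TYK2 with 1 μM ATP, or 1 nM JAK2 with 100 μM ATP, each with 1 μM biotin-TK substrate. Phosphorylation detected by HTRF (60 min antibody/XL665) and evaluated from emission ratios.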

[2] = target: T2, wt human JAK1, catalytic site (Homo sapiens, UniProt P23458); test: HTRF KinEASE assay, JAK1; type: biochemical; details: 2.5 μM ATP; read-out: IC50, Activity Toward JAK1
T2 construct: wt human JAK1, catalytic site; purchased ThermoFisher
T2 sequence (P23458 875-1153 limits assumed): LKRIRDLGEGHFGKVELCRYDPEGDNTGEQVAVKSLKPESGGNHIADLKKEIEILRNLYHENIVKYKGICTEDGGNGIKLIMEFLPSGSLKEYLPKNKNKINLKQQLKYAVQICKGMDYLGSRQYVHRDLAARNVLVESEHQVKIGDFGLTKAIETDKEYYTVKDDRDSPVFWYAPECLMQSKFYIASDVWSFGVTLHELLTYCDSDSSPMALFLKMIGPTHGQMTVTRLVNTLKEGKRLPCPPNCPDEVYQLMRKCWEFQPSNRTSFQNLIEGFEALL
Outline: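 Compounds in DMSO dilution were mixed with kinase, biotin-TK substrate and ATP and reacted for ≥30 min at room temperature. Detection reagents (antibody, streptavidin-XL665) were read 60 min later as HTRF, with emission ratios analysed per KinEASE protocol.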

Structure (SMILES)	IC50 [1] [nM]	IC50 [2] [nM]
COCCc1nc(C(F)(F)F)nn1-c1ccc(Nc2cn(-c3c(Cl)cccc3Cl)nc2C(N)=O)cc1 [compound 330, 1-(2,6-dichlorophenyl)-4-((4-(5-(2-methoxyethyl)-3-(trifluoromethyl)-1H-1,2,4-triazol-1-yl)phenyl)amino)-1H-pyrazole-3-carboxamide]	10 to 100	10 to 100
Cc1nnnn1-c1ccc(Nc2nn(-c3c(Cl)cccc3Cl)nc2C(N)=O)nc1 [compound 134, 2-(2,6-dichlorophenyl)-5-((5-(5-methyl-1H-tetrazol-1-yl)pyridin-2-yl)amino)-2H-1,2,3-triazole-4-carboxamide]	10 to 100	10 to 100
N#Cc1cc(Cl)c(-n2nc(Nc3ccc(C(=O)N4CCC(F)C4)cc3)c(C(N)=O)n2)c(Cl)c1 (stereo in doubt) [compound 148, (R)-2-(2,6-dichloro-4-cyanophenyl)-5-((4-(3-fluoropyrrolidine-1-carbonyl)phenyl)amino)-2H-1,2,3-triazole-4-carboxamide]	10 to 100	100 to 1000
CC(C)(C)NC(=O)c1ccc(Nc2cn(-c3c(F)cccc3Cl)nc2C(N)=O)cc1F [compound 29]	10 to 100	100 to 1000
Cc1cnncc1-c1ccc(Nc2cn(-c3c(Cl)cccc3Cl)nc2C(N)=O)cc1 [compound 340, 1-(2,6-dichlorophenyl)-4-((4-(5-methylpyridazin-4-yl)phenyl)amino)-1H-pyrazole-3-carboxamide]	10 to 100	100 to 1000
Cn1nnnc1-c1ccc(Nc2nn(-c3c(Cl)cccc3Cl)nc2C(N)=O)nc1 [compound 158, 2-(2,6-dichlorophenyl)-5-((5-(1-methyl-1H-tetrazol-5-yl)pyridin-2-yl)amino)-2H-1,2,3-triazole-4-carboxamide]	10 to 100	10 to 100
NC(=O)c1nn(-c2c(Cl)cc(F)cc2Cl)nc1Nc1ccc(C(=O)N2CCSCC2)cc1 [compound 177, 2-(2,6-dichloro-4-fluorophenyl)-5-((4-(thiomorpholine-4-carbonyl)phenyl)amino)-2H-1,2,3-triazole-4-carboxamide]	10 to 100	< 10
NC(=O)c1nn(-c2c(Cl)cccc2Cl)cc1Nc1ccc(C(=O)N2CCOCC2)nc1 [compound 365, 1-(2,6-dichlorophenyl)-4-((6-(morpholine-4-carbonyl)pyridin-3-yl)amino)-1H-pyrazole-3-carboxamide]	10 to 100	10 to 100
CCn1ncnc1-c1ccc(Nc2cn(-c3c(Cl)cccc3Cl)nc2C(N)=O)nc1 [compound 431, 1-(2,6-dichlorophenyl)-4-((5-(1-ethyl-1H-1,2,4-triazol-5-yl)pyridin-2-yl)amino)-1H-pyrazole-3-carboxamide]	100 to 1000	10 to 100
NC(=O)c1nn(-c2c(Cl)cccc2Cl)nc1Nc1ccc(C(=O)N2CC(O)C2)cn1 [compound 154, 2-(2,6-dichlorophenyl)-5-((5-(3-hydroxyazetidine-1-carbonyl)pyridin-2-yl)amino)-2H-1,2,3-triazole-4-carboxamide]	10 to 100	10 to 100
NC(=O)c1nn(-c2c(Cl)cccc2Cl)cc1Nc1ccc(-n2cnc(Cl)n2)cc1 [compound 79, 4-((4-(3-chloro-1H-1,2,4-triazol-1-yl)phenyl)amino)-1-(2,6-dichlorophenyl)-1H-pyrazole-3-carboxamide]	10 to 100	100 to 1000
NC(=O)c1nn(-c2c(Cl)cccc2Cl)nc1Nc1ccc(C(=O)N2CC(F)C2)cn1 [compound 135, 2-(2,6-dichlorophenyl)-5-((5-(3-fluoroazetidine-1-carbonyl)pyridin-2-yl)amino)-2H-1,2,3-triazole-4-carboxamide]	10 to 100	10 to 100
CN1CCC(N(C)C(=O)c2ccc(Nc3cn(-c4c(Cl)cc(F)cc4Cl)nc3C(N)=O)cc2)CC1 [compound 413, 1-(2,6-dichloro-4-fluorophenyl)-4-((4-(methyl(1-methylpiperidin-4-yl)carbamoyl)phenyl)amino)-1H-pyrazole-3-carboxamide]	< 10	10 to 100
N=S1(=O)CCN(C(=O)c2ccc(Nc3cn(-c4c(Cl)cccc4Cl)nc3C(N)=O)cc2)CC1 [compound 468, 1-(2,6-dichlorophenyl)-4-((4-(1-imino-1-oxidothiomorpholine-4-carbonyl)phenyl)amino)-1H-pyrazole-3-carboxamide]	< 10	< 10
NC(=O)c1nn(-c2c(Cl)cccc2Cl)cc1Nc1ccc(C(=O)N2CCC2)cc1 [compound 92, 4-((4-(azetidine-1-carbonyl)phenyl)amino)-1-(2,6-dichlorophenyl)-1H-pyrazole-3-carboxamide]	10 to 100	10 to 100
Cn1nnnc1-c1ccc(Nc2cn(-c3c(Cl)cccc3Cl)nc2C(N)=O)nc1 [compound 445, 1-(2,6-dichlorophenyl)-4-((5-(1-methyl-1H-tetrazol-5-yl)pyridin-2-yl)amino)-1H-pyrazole-3-carboxamide]	10 to 100	10 to 100
NC(=O)c1nn(-c2c(Cl)cccc2Cl)cc1Nc1ccc(C(=O)N2CC[C@@H](F)C2)cn1 [compound 443, (R)-1-(2,6-dichlorophenyl)-4-((5-(3-fluoropyrrolidine-1-carbonyl)pyridin-2-yl)amino)-1H-pyrazole-3-carboxamide]	10 to 100	10 to 100
Cc1ccc(=O)n(-c2ccc(Nc3cn(-c4c(Cl)cccc4Cl)nc3C(N)=O)cc2)n1 [compound 72, 1-(2,6-dichlorophenyl)-4-((4-(3-methyl-6-oxopyridazin-1(6H)-yl)phenyl)amino)-1H-pyrazole-3-carboxamide]	10 to 100	100 to 1000
Cc1nc2cc(Nc3cn(-c4c(Cl)cccc4Cl)nc3C(N)=O)ccc2n1C [compound 43, 1-(2,6-dichlorophenyl)-4-((1,2-dimethyl-1H-benzo[d]imidazol-5-yl)amino)-1H-pyrazole-3-carboxamide]	100 to 1000	100 to 1000
CCn1cc(C(F)(F)F)nc1-c1ccc(Nc2cn(-c3c(Cl)cccc3Cl)nc2C(N)=O)cc1 [compound 293, 1-(2,6-dichlorophenyl)-4-((4-(1-ethyl-4-(trifluoromethyl)-1H-imidazol-2-yl)phenyl)amino)-1H-pyrazole-3-carboxamide]	10 to 100	10 to 100
NC(=O)c1nn(-c2c(Cl)cccc2Cl)cc1Nc1ccc(-n2ccccc2=O)nc1 [compound 390, 1-(2,6-dichlorophenyl)-4-((2-oxo-2H-[1,2′-bipyridin]-5′-yl)amino)-1H-pyrazole-3-carboxamide]	100 to 1000	100 to 1000
COCn1cc(C(F)(F)F)nc1-c1ccc(Nc2cn(-c3c(Cl)cccc3Cl)nc2C(N)=O)cc1 [compound 292, 1-(2,6-dichlorophenyl)-4-((4-(1-(methoxymethyl)-4-(trifluoromethyl)-1H-imidazol-2-yl)phenyl)amino)-1H-pyrazole-3-carboxamide]	< 10	10 to 100
NC(=O)c1nn(-c2c(Cl)cccc2Cl)cc1Nc1ccc(C(=O)N2CCS(=O)(=O)CC2)nc1 [compound 463, 1-(2,6-dichlorophenyl)-4-((6-(1,1-dioxidothiomorpholine-4-carbonyl)pyridin-3-yl)amino)-1H-pyrazole-3-carboxamide]	< 10	10 to 100
